Test results taken from ChEMBL document CHEMBL1201862, “PubChem BioAssay data set” (2004).
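Where inhibition never reached the appropriate level, the endpoint shown equals the highest concentration tested. Otherwise, values were interpolated linearly from a five-concentration, 48-hour dose response in 96-well plates. Here, GI50 denotes the concentration required for 50% inhibition of growth.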 Active and inactive are the calls of the source. Rule as the data show it: active = GI50 up to about 1.1 µM and inactive = higher.

Columns and labels:
Assay in all cases: NCI anticancer screen, dose series, 48 h
SK-MEL-5 = tested on: SK-MEL-5
TK-10 = tested on: TK-10
MDA-MB-231 = tested on: MDA-MB-231
U-251 = tested on: U-251
OVCAR-4 = tested on: OVCAR-4
SR = tested on: SR
UACC-62 = tested on: UACC-62
OVCAR-5 = tested on: OVCAR-5
SF-539 = tested on: SF-539
HT-29 = tested on: HT-29
CAKI-1 = tested on: CAKI-1
CCRF-CEM = tested on: CCRF-CEM
MDA-N = tested on: MDA-N
SF-295 = tested on: SF-295
DU-145 = tested on: DU-145
SW-620 = tested on: SW-620
KM12 = tested on: KM12
NCI-H226 = tested on: NCI-H226
HOP-62 = tested on: HOP-62
RXF 393 = tested on: RXF 393

SMILES	GI50 (SK-MEL-5)	GI50 (TK-10)	GI50 (MDA-MB-231)	GI50 (U-251)	GI50 (OVCAR-4)	GI50 (SR)	GI50 (UACC-62)	GI50 (OVCAR-5)	GI50 (SF-539)	GI50 (HT-29)	GI50 (CAKI-1)	GI50 (CCRF-CEM)	GI50 (MDA-N)	GI50 (SF-295)	GI50 (DU-145)	GI50 (SW-620)	GI50 (KM12)	GI50 (NCI-H226)	GI50 (HOP-62)	GI50 (RXF 393)
O=C(O)c1cnc(-n2[nH]c3c(c2=O)CCCC3)[nH]c1=O	> 100 µM (inactive)	> 100 µM (inactive)	> 100 µM (inactive)	> 100 µM (inactive)	> 100 µM (inactive)	> 100 µM (inactive)	> 100 µM (inactive)	> 100 µM (inactive)	> 100 µM (inactive)	> 100 µM (inactive)	> 100 µM (inactive)	> 100 µM (inactive)	> 100 µM (inactive)	> 100 µM (inactive)	> 100 µM (inactive)	> 100 µM (inactive)	> 100 µM (inactive)	> 100 µM (inactive)	–	–
COC(=O)C1c2cc3c(cc2C(OC2OC(C)C(OC)C(C)(OC)C2OC)CC1(C)O)C(=O)c1c(O)cc2c(c1C3=O)OC1OC2(C)C(O)C([N+](C)(C)[O-])C1O (configuration not stated)	0.0776 µM (active)	2.83 µM (inactive)	0.469 µM (active)	0.0386 µM (active)	4.09 µM (inactive)	0.305 µM (active)	0.0509 µM (active)	1.48 µM (inactive)	0.0883 µM (active)	0.173 µM (active)	0.938 µM (active)	0.0504 µM (active)	0.0512 µM (active)	0.269 µM (active)	0.275 µM (active)	0.0845 µM (active)	0.154 µM (active)	–	0.336 µM (active)	0.179 µM (active)
CC(CSC(=N)N)C(N)=O (configuration not stated)	> 100 µM (inactive)	> 100 µM (inactive)	> 100 µM (inactive)	> 100 µM (inactive)	> 100 µM (inactive)	> 100 µM (inactive)	> 100 µM (inactive)	> 100 µM (inactive)	–	> 100 µM (inactive)	> 100 µM (inactive)	> 100 µM (inactive)	> 100 µM (inactive)	> 100 µM (inactive)	> 100 µM (inactive)	> 100 µM (inactive)	> 100 µM (inactive)	> 100 µM (inactive)	> 100 µM (inactive)	> 100 µM (inactive)
O=C(O)CSc1cc(-c2ccccc2)nc2ccccc12	30.4 µM (inactive)	64.1 µM (inactive)	98.9 µM (inactive)	32.5 µM (inactive)	64 µM (inactive)	27.9 µM (inactive)	48.3 µM (inactive)	> 100 µM (inactive)	–	36.2 µM (inactive)	67.5 µM (inactive)	–	35.6 µM (inactive)	45.5 µM (inactive)	34 µM (inactive)	44.3 µM (inactive)	30.5 µM (inactive)	–	48.2 µM (inactive)	27.4 µM (inactive)
CCOC(=O)C(NC(=O)c1cccc(Cl)c1)(Nc1cccc(C)c1)C(F)(F)F (configuration not stated)	16.1 µM (inactive)	29.8 µM (inactive)	19.4 µM (inactive)	23.8 µM (inactive)	21.8 µM (inactive)	28.7 µM (inactive)	14.5 µM (inactive)	–	17.9 µM (inactive)	13.3 µM (inactive)	20.7 µM (inactive)	11.6 µM (inactive)	17.5 µM (inactive)	–	29.3 µM (inactive)	16.4 µM (inactive)	13.6 µM (inactive)	14 µM (inactive)	17.7 µM (inactive)	13 µM (inactive)
O=C(O)CCN1CCN(CCC(=O)O)CCN(CCC(=O)O)CC1	74 µM (inactive)	> 100 µM (inactive)	> 100 µM (inactive)	> 100 µM (inactive)	> 100 µM (inactive)	44.6 µM (inactive)	> 100 µM (inactive)	> 100 µM (inactive)	> 100 µM (inactive)	53.6 µM (inactive)	> 100 µM (inactive)	> 100 µM (inactive)	> 100 µM (inactive)	> 100 µM (inactive)	> 100 µM (inactive)	44.4 µM (inactive)	69.7 µM (inactive)	> 100 µM (inactive)	> 100 µM (inactive)	–
O=c1c2cc(-c3ccccc3)cnc2sn1-c1ccc(Oc2ccccc2)cc1	–	–	14.5 µM (inactive)	23.6 µM (inactive)	19.9 µM (inactive)	> 100 µM (inactive)	26.9 µM (inactive)	65.2 µM (inactive)	50.4 µM (inactive)	23.4 µM (inactive)	61.9 µM (inactive)	27.3 µM (inactive)	28.4 µM (inactive)	31 µM (inactive)	80.9 µM (inactive)	37.8 µM (inactive)	48.5 µM (inactive)	87.5 µM (inactive)	22.1 µM (inactive)	19.1 µM (inactive)
ClCCN1CCO/C1=N/c1ccc2c(c1)CCCC2	1.96 µM (inactive)	–	13.4 µM (inactive)	4.65 µM (inactive)	6.1 µM (inactive)	19.6 µM (inactive)	11.3 µM (inactive)	17.3 µM (inactive)	4.81 µM (inactive)	14.4 µM (inactive)	16 µM (inactive)	11.3 µM (inactive)	10.8 µM (inactive)	12.1 µM (inactive)	15.7 µM (inactive)	22.3 µM (inactive)	17.9 µM (inactive)	13.5 µM (inactive)	4.67 µM (inactive)	8.39 µM (inactive)
CC[C@@H]1/C=C/C=C/C[C@H](C)[C@@H](O)[C@](C)(O)C(=O)[C@H](C)[C@@H](O)[C@H](C)C(=O)[C@H](C)[C@@H](O)[C@H](C)/C=C/C(=O)O[C@H]2[C@@H](C)[C@@H](CC1)O[C@]1(O[C@H](CC(C)O)[C@H](C)CC1=O)[C@@H]2C (some centres not stated)	< 0.0025 µM (active)	1.22 µM (inactive)	3.72 µM (inactive)	< 0.0025 µM (active)	2.56 µM (inactive)	4.13 µM (inactive)	3.22 µM (inactive)	3.3 µM (inactive)	4.41 µM (inactive)	2.92 µM (inactive)	3.96 µM (inactive)	3.56 µM (inactive)	3.35 µM (inactive)	< 0.0025 µM (active)	3.3 µM (inactive)	5.57 µM (inactive)	3.81 µM (inactive)	–	3.18 µM (inactive)	3.6 µM (inactive)
Cc1cccc(N2CCN(S(=O)(=O)c3ccc(Cl)cc3)C2=N)c1C	> 100 µM (inactive)	> 100 µM (inactive)	> 100 µM (inactive)	> 100 µM (inactive)	–	18.1 µM (inactive)	38.4 µM (inactive)	> 100 µM (inactive)	> 100 µM (inactive)	> 100 µM (inactive)	> 100 µM (inactive)	–	> 100 µM (inactive)	77.4 µM (inactive)	93.3 µM (inactive)	> 100 µM (inactive)	> 100 µM (inactive)	> 100 µM (inactive)	–	> 100 µM (inactive)
O=c1c2sc(=S)n(-c3ccc(F)cc3)c2ncn1/N=C/c1ccc(F)cc1F	58.1 µM (inactive)	18.1 µM (inactive)	21.1 µM (inactive)	23.4 µM (inactive)	18.9 µM (inactive)	40.1 µM (inactive)	27.7 µM (inactive)	32.2 µM (inactive)	–	> 100 µM (inactive)	14.4 µM (inactive)	63.7 µM (inactive)	> 100 µM (inactive)	21.1 µM (inactive)	19 µM (inactive)	> 100 µM (inactive)	79.8 µM (inactive)	24.4 µM (inactive)	16.6 µM (inactive)	15.8 µM (inactive)
CS(=O)(=O)O[C@H]1[C@H](O)c2ccccc2[C@@H]1N=[N+]=[N-]	> 100 µM (inactive)	–	> 100 µM (inactive)	> 100 µM (inactive)	> 100 µM (inactive)	> 100 µM (inactive)	> 100 µM (inactive)	> 100 µM (inactive)	> 100 µM (inactive)	> 100 µM (inactive)	> 100 µM (inactive)	> 100 µM (inactive)	> 100 µM (inactive)	> 100 µM (inactive)	> 100 µM (inactive)	> 100 µM (inactive)	> 100 µM (inactive)	> 100 µM (inactive)	> 100 µM (inactive)	> 100 µM (inactive)
CC(=O)O[C@H]1C(=O)[C@@]2(C)C(C(OC(=O)c3ccccc3)[C@]3(O)CC(OC(=O)C(O)C(NC(=O)c4cccc(Cl)c4)c4ccccc4)C(C)=C1C3(C)C)[C@]1(OC(C)=O)CO[C@@H]1C[C@@H]2O (some centres not stated)	0.42 µM (active)	2.51 µM (inactive)	1.73 µM (inactive)	1.25 µM (inactive)	3.96 µM (inactive)	0.218 µM (active)	–	1.1 µM (active)	0.353 µM (active)	0.269 µM (active)	6.64 µM (inactive)	0.262 µM (active)	0.0914 µM (active)	1.15 µM (inactive)	0.546 µM (active)	0.838 µM (active)	0.507 µM (active)	> 10 µM (inactive)	0.518 µM (active)	–
CN(C)c1ccc(/C=C/c2nc3ccccc3s2)cc1	> 100 µM (inactive)	> 100 µM (inactive)	> 100 µM (inactive)	> 100 µM (inactive)	> 100 µM (inactive)	> 100 µM (inactive)	–	> 100 µM (inactive)	> 100 µM (inactive)	> 100 µM (inactive)	–	> 100 µM (inactive)	> 100 µM (inactive)	> 100 µM (inactive)	> 100 µM (inactive)	> 100 µM (inactive)	> 100 µM (inactive)	> 100 µM (inactive)	> 100 µM (inactive)	> 100 µM (inactive)
